Measured values: ChEMBL document CHEMBL5154697, “Synthesis and anti-HIV activity of a new isoxazole containing disubstituted 1,2,4-oxadiazoles analogs” (Bioorg Med Chem, 2022)

Columns and labels:
[1] = Cytotoxicity against human CEM-GFP cells assessed as reduction in cell viability measured after 48 hrs by MTT assay; format: toxicity, cell-based
[2] = test system: Human immunodeficiency virus 1; test: Antiviral activity against HIV1 NL4.3 infected in human TZM-bl cells assessed as inhibition of viral infection at 100 nM measured after 48 hrs by steady-glo luciferase reporter gene assay relative to control; format: functional; conditions: Human immunodeficiency virus 1, NL4.3, TZM-bl
[3] = test system: Human immunodeficiency virus 1; test: Antiviral activity against HIV1 NL4.3 virus infected in human CEM-GFP cells assessed as reduction in p24 antigen level at 100 nM measured after 72 hrs by ELISA relative to control; format: functional; conditions: Human immunodeficiency virus 1, NL4.3, CEM-GFP
[4] = Cytotoxicity against human CEM-GFP cells assessed as cell viability at 100 nM measured after 48 hrs by MTT assay relative to control; format: toxicity, cell-based; conditions: read-out: Activity
[5] = Cytotoxicity against human TZM-bl cells harboring beta-galactosidase/luciferase reporter gene assessed as cell viability at 100 nM measured after 48 hrs by MTT assay relative to control; format: toxicity, cell-based; conditions: read-out: Activity
[6] = Therapeutic index, ratio of CC50 for cytotoxicity against human CEM-GFP cells to IC50 for antiviral activity against HIV1 NL4.3 virus infected in human CEM-GFP cells assessed as reduction in p24 antigen level; format: toxicity, cell-based; conditions: read-out: TI
[7] = target: Human immunodeficiency virus type 1 integrase (Human immunodeficiency virus 1) (UniProt Q7ZJM1); test: Inhibition of full-length recombinant HIV1 integrase at 100 nM using target substrate DNA preincubated for 5 mins followed by substrate addition and measured after 30 mins by colorimetry relative to control; conditions: time 35.0 min
Chain of Human immunodeficiency virus type 1 integrase (Human immunodeficiency virus 1) (Q7ZJM1 as listed by the source): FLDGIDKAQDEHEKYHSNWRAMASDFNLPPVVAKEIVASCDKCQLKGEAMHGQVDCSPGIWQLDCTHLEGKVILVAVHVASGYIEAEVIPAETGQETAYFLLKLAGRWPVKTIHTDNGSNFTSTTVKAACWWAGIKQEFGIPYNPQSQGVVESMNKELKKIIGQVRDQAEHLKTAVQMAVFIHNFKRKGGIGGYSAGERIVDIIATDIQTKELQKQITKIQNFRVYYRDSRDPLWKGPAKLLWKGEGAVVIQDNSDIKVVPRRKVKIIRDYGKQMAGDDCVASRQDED

[8] = target: Human immunodeficiency virus type 1 reverse transcriptase (Human immunodeficiency virus 1) (UniProt Q72547); test: Inhibition of HIV-1 reverse transcriptase RNA-dependent DNA polymerase activity assessed as reduction in biotin-dUTP incorporation at 100 nM using poly(A)/oligo (dT)15 as template/primer by ELISA relative to control
[9] = target: Human immunodeficiency virus type 1 protease (Human immunodeficiency virus 1) (UniProt Q72874); test: Inhibition of HIV-1 protease at 100 nM using fluorophore-labelled peptide substrate by fluorescence assay relative to control
[10] = test system: Human immunodeficiency virus 1; test: Antiviral activity against HIV1 NL4.3 virus infected in human CEM-GFP cells assessed as reduction in p24 antigen level measured after 72 hrs by ELISA; format: functional, organism-based; conditions: Human immunodeficiency virus 1, NL4.3, CEM-GFP
[11] = target: Human immunodeficiency virus type 1 protease (Human immunodeficiency virus 1) (UniProt Q72874); conditions: dose 500.0 nM
Description: Inhibition of HIV-1 protease at 500 nM using fluorophore-labelled peptide substrate by fluorescence assay relative to control

In the case of CCNC(=O)c1noc(-c2cc(C(C)C)c(O)cc2O)c1-c1ccc(CN2CCOCC2)cc1 [LUMINESPIB], the CC50 at 48 h [1] is reported as 31.1 µM, the inhibition at 0.1 µM [2] is reported as 88.9% and the inhibition at 0.1 µM [3] is reported as 82.5%. The viability at 48 h, 0.1 µM [4] was 94.1%, the viability at 48 h, 0.1 µM [5] was 92.7% and the selectivity ratio [6] was 470.

COc1ccc(-c2cc(Cc3noc(-c4cccc(C(F)(F)F)c4)n3)on2)cc1 gave an inhibition at 0.1 µM [2] of 24.3%, an inhibition at 0.1 µM [3] of 27% and a viability at 48 h, 0.1 µM [4] of 96.6%. It also gave a viability at 48 h, 0.1 µM [5] of 83%.

In the case of FC(F)(F)c1cccc(-c2nc(Cc3cc(-c4ccc(Cl)cc4)no3)no2)c1, the inhibition [7] is reported as 9.58%, the inhibition [8] is reported as 5.44% and the CC50 at 48 h [1] is reported as 13.3 µM. The inhibition [9] was 6.66%, the inhibition at 0.1 µM [2] was 82% and the inhibition at 0.1 µM [3] was 66.8%. The viability at 48 h, 0.1 µM [4] was 85.1%, the IC50 [10] was 0.0857 µM and the viability at 48 h, 0.1 µM [5] was 84.4%. For the same compound, the selectivity ratio [6] was 155.

For Cc1ccc(-c2cc(Cc3noc(-c4cccc(C(F)(F)F)c4)n3)on2)cc1, the inhibition at 0.1 µM [2] was 65.4%, the inhibition at 0.1 µM [3] was 50% and the viability at 48 h, 0.1 µM [4] was 86.7%. It also gave a viability at 48 h, 0.1 µM [5] of 82.1%.

Work on CC(C)(C)NC(=O)[C@@H]1CN(Cc2cccnc2)CCN1C[C@@H](O)C[C@@H](Cc1ccccc1)C(=O)N[C@H]1c2ccccc2C[C@H]1O yielded an inhibition [11] of 87%.

FC(F)(F)c1cccc(-c2nc(Cc3cc(-c4ccccc4)no3)no2)c1 gave an inhibition at 0.1 µM [2] of 47.4%, an inhibition at 0.1 µM [3] of 39.1% and a viability at 48 h, 0.1 µM [4] of 95.9%. It also gave a viability at 48 h, 0.1 µM [5] of 84.7%.

FC(F)(F)c1cccc(-c2nc(Cc3cc(-c4cccs4)no3)no2)c1 gave an inhibition at 0.1 µM [2] of 27.5%, an inhibition at 0.1 µM [3] of 17.5% and a viability at 48 h, 0.1 µM [4] of 88.3%. The viability at 48 h, 0.1 µM [5] was 88.2%.
